This assay concerns superoxide. The experiment in a line: Cell-free superoxide scavenging by EPR spectroscopy (HX+XO or FMN source, CMH spin probe). Format: biochemical. The note with it: 400 U/ml SOD1. The protocol:
The ability of C60-polymer complexes to scavenge superoxide was measured by EPR spectroscopy, as reported (Rosenbaugh et al. (2010) Biomaterials 31:5218-26). Briefly, superoxide generated by HX—XO or a photosensitizer, FMN, was detected using the CMH spin probe. Samples contained 0.025 mM DF and 0.005 mM DETC buffer (pH 7.4), 0.025 mM CMH, 0.025 mM HX and 10 mU XO (or 0.02 mM FMN instead of HX—XO) and C60-polymer complexes at different concentrations. After complete mixing, each sample was incubated at r.t. for 5 minutes and 50 μl of the sample was loaded into a glass capillary, which was then inserted into the capillary holder of the EPR spectrometer. The CMH radical signal was recorded and EPR spectrum amplitude was quantified.

Consider superoxide dismutase [SOD1], for which the “Effect on EPR spectrum” value is recorded as “completely abolished the EPR spectrum”.

For the origin of these results see patent US9233164B2, “Water soluble fullerene formulations and methods of use thereof” (BOARD OF REGENTS OF THE UNIVERSITY OF NEBRASKA, priority 2011, dated 2016).
